Data as given in ChEMBL document CHEMBL1201862, “PubChem BioAssay data set” (2004).
Calls of active or inactive are those of the source.

Key:
[1] = test system: Jurkat; test: SAR Analysis of small molecule inhibitors of […] specific antigen receptor-induced NF-kB activation in a Jurkat cell line using a luminescence assay - Set 3. [Related pubchem assays (depositor defined):AID435022, AID435025, AID465]; type: functional, cell-based; details: Homo sapiens
[2] = test system: HEK293; test: HEK293T cell viability loss, resazurin readout – resazurin fluorescence, cytotoxicity control for NF-kB activator project, SAR follow-up (AID 493251); type: functional, cell-based; details: Homo sapiens
[3] = test system: HEK293; test: SAR Analysis of small molecule inhibitors of B-cell specific antigen receptor-induced NF-kB activation in a HEK-293T cell line using a luminescence assay - Set 2. [Related pubchem assays (depositor defined):AID435022, AID435025, AID489021]; type: functional, cell-based; details: Homo sapiens
[4] = MIN6 cell viability loss – mouse insulinoma, cytotoxicity control, dose response (AID 2122); type: functional;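 note: confirmatory high-throughput counterscreen run to flag cytotoxic compounds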
[5] = decrease of insulin promoter-GFP reporter – imaging, high-content screening, mouse beta cells (AID 1628); type: functional; details: MIN6
[6] = Vero E6 cell cytotoxicity, dose response, cytotoxicity control for non-replicating M. tuberculosis project, secondary assay (AID 492998); type: functional, VeroE6; details: Vero C1008
[7] = target: CAAX prenyl protease 1 (Saccharomyces cerevisiae S288c, UniProt P47154); test: yeast CAAX protease Ste24 inhibition – biochemical, S. cerevisiae, plate reader, cherry-pick, dose response (AID 488815)
[8] = HepG2 cell cytotoxicity, dose response, cytotoxicity control for non-replicating M. tuberculosis project (AID 489018); type: functional; details: Mycobacterium tuberculosis
[9] = cells; type: functional
[10] = target: T1, CAAX prenyl protease 2 (Homo sapiens, UniProt Q9Y256); test: inhibition of Ras-converting CAAX protease Rce1 – biochemical, yeast membranes, quenched-peptide fluorescence, cherry-pick, dose response (AID 588849)
T1 sequence (Q9Y256 whole entry): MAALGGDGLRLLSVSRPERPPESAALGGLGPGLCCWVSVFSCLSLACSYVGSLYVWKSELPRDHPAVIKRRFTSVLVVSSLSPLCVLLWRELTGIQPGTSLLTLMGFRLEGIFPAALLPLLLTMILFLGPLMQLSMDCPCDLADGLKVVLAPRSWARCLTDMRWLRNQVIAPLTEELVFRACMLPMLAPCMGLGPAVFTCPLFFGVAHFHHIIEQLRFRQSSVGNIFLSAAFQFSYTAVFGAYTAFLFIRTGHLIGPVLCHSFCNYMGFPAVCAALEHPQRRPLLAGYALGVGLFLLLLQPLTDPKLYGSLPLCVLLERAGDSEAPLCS

[11] = target: Trypsin (Sus scrofa, UniProt P00761); test: trypsin protease activity blockade – biochemical, quenched peptide fluorescence, cherry-pick, selectivity assay for Rce1 protease inhibitor project, dose response (AID 488789)
[12] = target: Intestinal-type alkaline phosphatase (Mus musculus, UniProt P24822); test: PubChem AID 488874; type: functional
[13] = target: T2, Intestinal-type alkaline phosphatase (Homo sapiens, UniProt P09923); test: human intestinal alkaline phosphatase activators, dose response, biochemical, luminescence, uHTS hits (AID 463120); type: functional
[14] = target: T2, Intestinal-type alkaline phosphatase; test: activation of human intestinal alkaline phosphatase – biochemical, luminescent, uHTS hits, set 2, dose response (AID 488817); type: functional;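 note: potency of activators that raise enzyme activity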
[15] = target: T3, Alkaline phosphatase, tissue-nonspecific isozyme (Homo sapiens, UniProt P05186); test: activation of tissue-nonspecific alkaline phosphatase – biochemical, TNAP isozyme, human IAP uHTS hits, selectivity assay for human IAP activator project, dose response (AID 488886); type: functional;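 note: potency of compounds raising TNAP activity as a selectivity check on IAP activators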
T3 sequence (P05186 whole entry): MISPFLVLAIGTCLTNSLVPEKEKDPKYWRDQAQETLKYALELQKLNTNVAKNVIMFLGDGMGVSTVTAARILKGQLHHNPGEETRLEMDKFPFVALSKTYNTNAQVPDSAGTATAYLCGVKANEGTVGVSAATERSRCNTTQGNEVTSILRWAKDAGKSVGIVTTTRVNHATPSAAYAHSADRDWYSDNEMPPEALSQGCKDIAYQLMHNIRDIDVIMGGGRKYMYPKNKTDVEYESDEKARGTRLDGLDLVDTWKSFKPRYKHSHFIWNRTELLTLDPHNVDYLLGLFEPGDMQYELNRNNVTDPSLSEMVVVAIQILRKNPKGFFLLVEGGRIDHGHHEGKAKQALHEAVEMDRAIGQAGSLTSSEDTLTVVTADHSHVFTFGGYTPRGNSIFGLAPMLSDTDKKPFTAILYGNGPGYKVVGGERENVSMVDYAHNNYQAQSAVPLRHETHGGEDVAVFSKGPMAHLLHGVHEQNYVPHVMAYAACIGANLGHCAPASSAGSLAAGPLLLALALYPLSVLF

[16] = target: T3, Alkaline phosphatase, tissue-nonspecific isozyme
[17] = test system: HEK293; test: NOD2 signaling inhibitors in MDP-stimulated cells, cell-based, uHTS, luminescence (AID 2001); type: functional; details: Homo sapiens
[18] = test system: HEK293; test: cells; type: functional, cell-based; details: Homo sapiens
[19] = target: Nucleotide-binding oligomerization domain-containing protein 2 (Homo sapiens, UniProt Q9HC29); test: inhibition of NOD2-driven NF-kB reporter – cell-based, luminescence, uHTS, HEK293 (AID 1566); type: functional
[20] = test system: HEK293; test: inhibition of NOD1-driven NF-kB reporter – cell-based, luminescence, uHTS, primary screen (AID 1578); type: functional; details: Homo sapiens
[21] = test system: HEK293; test: cells; details: Homo sapiens
[22] = target: Nucleotide-binding oligomerization domain-containing protein 1 (Homo sapiens, UniProt Q9Y239); test: blockers of NOD1 pathway activity – revised, SAR follow-up (AID 2333); type: functional
[23] = test system: HEK293; test: cells; type: functional, cell-based; details: Homo sapiens; remark: listed apart in the source
[24] = target: Tumor necrosis factor (Homo sapiens, UniProt P01375); test: analog potency on TNFa NF-kB signaling – cell-based, revised, SAR follow-up (AID 2337); type: functional
[25] = test system: HEK293; test: cells; type: functional, cell-based; details: Homo sapiens; remark: listed apart in the source
[26] = target: T4, Cytochrome P450 1A2 (Homo sapiens, UniProt P05177);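 note: PubChem cytochrome P450 panel assay, CYP1A2 panel member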
T4 sequence (P05177 whole entry): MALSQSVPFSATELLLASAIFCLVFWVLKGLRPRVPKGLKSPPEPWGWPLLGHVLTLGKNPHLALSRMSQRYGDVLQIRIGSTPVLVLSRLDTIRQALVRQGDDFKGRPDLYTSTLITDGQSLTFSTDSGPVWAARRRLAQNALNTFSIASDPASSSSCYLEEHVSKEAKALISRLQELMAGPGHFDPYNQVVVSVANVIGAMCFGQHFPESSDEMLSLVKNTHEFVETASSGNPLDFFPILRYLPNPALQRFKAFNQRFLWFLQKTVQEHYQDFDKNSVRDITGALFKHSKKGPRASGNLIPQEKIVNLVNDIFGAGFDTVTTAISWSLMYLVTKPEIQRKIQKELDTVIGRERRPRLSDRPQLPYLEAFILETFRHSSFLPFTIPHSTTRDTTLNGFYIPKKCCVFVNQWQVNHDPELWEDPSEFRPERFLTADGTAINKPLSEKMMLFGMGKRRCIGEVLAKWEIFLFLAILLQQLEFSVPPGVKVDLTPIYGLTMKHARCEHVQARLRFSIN

[27] = Luminescence Cell-Based Dose Retest to Confirm Inhibitors of Cancer Stem Cells. [Related pubchem assays (depositor defined):AID2717, AID2721]; type: functional; details: Homo sapiens
[28] = target: T5, High affinity choline transporter 1 (Homo sapiens, UniProt Q9GZV3); test: human choline transporter blockers, potency – cell-based, 5-point CRC, membrane potential dye, dose response (AID 504840); type: functional
T5 sequence (Q9GZV3 whole entry): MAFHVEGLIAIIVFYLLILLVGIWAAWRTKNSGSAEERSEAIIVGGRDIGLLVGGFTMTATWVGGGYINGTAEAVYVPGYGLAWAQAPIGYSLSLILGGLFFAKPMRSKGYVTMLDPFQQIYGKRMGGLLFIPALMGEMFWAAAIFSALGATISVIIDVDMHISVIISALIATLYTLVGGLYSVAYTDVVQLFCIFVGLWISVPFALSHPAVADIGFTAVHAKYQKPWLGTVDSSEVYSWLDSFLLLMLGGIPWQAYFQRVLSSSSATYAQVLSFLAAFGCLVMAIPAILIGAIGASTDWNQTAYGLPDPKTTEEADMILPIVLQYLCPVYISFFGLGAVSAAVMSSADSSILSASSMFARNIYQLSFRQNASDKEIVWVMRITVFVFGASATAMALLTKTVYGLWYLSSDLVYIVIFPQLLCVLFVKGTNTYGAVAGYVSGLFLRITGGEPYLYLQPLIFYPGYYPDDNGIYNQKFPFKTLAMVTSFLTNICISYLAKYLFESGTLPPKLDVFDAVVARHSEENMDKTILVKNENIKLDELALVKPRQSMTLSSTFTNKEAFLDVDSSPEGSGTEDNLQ

[29] = viability loss of HMLE_sh_eGFP cells – cell-based, luminescence, counter-screen for HMLE_sh_ECad selective toxicity project, dose response (AID 463074); type: functional, Homo sapiens;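 note: HMLE human mammary epithelial cells expressing control shRNA against eGFP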

T2 sequence (P09923 whole entry): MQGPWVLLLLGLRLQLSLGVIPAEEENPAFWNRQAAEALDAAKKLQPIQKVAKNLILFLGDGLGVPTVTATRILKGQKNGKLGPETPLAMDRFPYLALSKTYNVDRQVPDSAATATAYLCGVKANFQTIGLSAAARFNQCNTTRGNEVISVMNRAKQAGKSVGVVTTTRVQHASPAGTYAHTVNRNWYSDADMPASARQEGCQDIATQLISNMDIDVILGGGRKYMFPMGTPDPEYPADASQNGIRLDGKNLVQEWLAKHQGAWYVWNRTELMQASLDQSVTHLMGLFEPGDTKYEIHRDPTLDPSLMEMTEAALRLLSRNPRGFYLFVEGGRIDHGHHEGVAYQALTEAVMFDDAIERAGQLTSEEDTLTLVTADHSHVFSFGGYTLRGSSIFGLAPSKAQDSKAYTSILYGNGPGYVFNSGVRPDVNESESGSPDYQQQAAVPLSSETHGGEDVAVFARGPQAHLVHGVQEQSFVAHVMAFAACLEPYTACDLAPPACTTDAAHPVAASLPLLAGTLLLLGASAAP
Chain of Nucleotide-binding oligomerization domain-containing protein 1 (Q9Y239 whole entry, the tested form may be a part): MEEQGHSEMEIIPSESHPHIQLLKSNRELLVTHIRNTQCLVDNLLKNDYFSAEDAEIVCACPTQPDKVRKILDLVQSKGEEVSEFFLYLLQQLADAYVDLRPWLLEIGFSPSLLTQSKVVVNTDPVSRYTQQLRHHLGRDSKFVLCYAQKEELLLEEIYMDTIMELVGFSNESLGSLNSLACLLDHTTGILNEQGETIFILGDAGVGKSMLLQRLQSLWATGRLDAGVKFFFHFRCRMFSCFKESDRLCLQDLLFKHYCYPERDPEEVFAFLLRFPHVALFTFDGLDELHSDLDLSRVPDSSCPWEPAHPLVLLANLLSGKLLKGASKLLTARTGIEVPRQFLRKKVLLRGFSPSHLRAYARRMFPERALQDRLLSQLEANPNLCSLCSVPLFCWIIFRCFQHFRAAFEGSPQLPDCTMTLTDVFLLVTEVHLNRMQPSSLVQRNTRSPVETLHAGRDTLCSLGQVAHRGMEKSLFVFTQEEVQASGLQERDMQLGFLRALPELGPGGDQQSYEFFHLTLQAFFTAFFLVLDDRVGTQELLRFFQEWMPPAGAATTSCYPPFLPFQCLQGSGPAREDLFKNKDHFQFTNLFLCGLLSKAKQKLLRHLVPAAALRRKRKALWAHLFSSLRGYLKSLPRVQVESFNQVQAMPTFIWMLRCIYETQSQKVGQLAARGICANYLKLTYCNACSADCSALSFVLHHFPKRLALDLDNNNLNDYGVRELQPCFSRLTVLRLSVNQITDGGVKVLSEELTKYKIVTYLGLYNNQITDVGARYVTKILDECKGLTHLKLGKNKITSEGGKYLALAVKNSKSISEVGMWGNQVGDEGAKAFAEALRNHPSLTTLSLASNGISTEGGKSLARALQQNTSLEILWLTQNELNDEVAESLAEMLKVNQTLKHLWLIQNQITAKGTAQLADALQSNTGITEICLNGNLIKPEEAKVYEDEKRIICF
Chain of Intestinal-type alkaline phosphatase (Mus musculus, UniProt P24822) (P24822 whole entry): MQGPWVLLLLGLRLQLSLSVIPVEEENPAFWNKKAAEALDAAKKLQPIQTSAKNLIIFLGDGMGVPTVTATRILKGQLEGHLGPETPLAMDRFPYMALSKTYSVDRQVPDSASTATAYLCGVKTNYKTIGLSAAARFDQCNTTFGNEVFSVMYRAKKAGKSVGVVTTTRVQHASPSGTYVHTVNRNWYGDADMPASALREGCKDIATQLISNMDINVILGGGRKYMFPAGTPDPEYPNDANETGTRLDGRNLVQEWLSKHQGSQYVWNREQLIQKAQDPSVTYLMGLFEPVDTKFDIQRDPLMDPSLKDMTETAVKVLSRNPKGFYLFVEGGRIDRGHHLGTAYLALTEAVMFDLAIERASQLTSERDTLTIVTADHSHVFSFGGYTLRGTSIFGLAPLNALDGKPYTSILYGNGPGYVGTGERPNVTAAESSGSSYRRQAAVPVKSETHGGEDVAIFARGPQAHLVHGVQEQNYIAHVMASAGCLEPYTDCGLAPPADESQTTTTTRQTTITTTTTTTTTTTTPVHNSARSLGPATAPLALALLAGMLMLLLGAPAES
Chain of Nucleotide-binding oligomerization domain-containing protein 2 (Q9HC29 whole entry, the tested form may be a part): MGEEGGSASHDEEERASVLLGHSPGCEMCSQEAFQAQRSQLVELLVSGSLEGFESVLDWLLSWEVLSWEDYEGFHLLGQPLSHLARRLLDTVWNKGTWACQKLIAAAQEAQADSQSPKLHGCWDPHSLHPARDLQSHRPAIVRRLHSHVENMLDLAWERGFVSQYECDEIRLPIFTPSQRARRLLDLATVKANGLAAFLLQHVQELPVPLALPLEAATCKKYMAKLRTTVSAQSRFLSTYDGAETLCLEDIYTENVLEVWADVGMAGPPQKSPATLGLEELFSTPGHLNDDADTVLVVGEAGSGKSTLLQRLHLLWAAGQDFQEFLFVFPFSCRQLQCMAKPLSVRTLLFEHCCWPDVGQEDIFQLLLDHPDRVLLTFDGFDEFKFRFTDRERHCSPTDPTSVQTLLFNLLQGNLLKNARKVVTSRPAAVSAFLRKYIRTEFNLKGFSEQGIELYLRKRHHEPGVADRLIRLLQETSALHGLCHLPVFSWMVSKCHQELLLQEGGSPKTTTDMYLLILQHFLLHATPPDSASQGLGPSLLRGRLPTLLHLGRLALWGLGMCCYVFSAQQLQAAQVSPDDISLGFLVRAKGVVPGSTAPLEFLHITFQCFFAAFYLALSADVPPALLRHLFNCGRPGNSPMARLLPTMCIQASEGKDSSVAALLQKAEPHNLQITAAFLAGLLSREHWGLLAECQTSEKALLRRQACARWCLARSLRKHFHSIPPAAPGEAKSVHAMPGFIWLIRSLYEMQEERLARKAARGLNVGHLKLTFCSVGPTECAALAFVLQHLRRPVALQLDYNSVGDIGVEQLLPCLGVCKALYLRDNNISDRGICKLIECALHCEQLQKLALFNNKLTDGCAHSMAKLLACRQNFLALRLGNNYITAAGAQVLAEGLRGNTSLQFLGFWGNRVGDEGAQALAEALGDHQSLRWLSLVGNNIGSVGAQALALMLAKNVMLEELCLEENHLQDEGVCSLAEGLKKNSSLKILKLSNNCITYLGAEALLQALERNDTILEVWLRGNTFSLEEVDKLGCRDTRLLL
Chain of Trypsin (P00761 whole entry): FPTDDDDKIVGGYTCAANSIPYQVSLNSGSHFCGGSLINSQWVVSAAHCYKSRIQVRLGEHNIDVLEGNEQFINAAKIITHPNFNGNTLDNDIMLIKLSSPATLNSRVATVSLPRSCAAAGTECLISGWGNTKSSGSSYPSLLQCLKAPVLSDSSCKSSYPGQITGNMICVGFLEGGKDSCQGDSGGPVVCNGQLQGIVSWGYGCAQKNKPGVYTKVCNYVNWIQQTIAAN
Chain of CAAX prenyl protease 1 (P47154 whole entry): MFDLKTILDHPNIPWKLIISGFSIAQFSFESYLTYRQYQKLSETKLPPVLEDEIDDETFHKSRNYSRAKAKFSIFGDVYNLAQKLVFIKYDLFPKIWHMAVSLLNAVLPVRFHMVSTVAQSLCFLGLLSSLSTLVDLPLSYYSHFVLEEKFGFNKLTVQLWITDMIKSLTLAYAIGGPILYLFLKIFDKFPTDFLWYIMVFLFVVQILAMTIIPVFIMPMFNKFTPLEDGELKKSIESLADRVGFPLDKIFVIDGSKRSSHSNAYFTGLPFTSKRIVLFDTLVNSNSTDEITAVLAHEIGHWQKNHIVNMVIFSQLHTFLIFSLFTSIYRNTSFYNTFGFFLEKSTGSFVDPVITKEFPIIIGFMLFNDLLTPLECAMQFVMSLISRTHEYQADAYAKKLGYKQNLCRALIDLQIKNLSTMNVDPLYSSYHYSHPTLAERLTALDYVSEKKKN
Chain of Tumor necrosis factor (P01375 whole entry): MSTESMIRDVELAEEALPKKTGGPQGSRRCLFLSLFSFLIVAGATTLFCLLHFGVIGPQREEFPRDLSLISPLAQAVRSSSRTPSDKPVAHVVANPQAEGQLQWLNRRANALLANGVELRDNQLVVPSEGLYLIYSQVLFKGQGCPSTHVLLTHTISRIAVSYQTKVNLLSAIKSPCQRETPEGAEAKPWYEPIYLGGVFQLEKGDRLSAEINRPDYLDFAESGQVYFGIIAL

CC(C)(C)c1ccc(-c2noc(CCC(=O)Nc3ccccc3)n2)cc1
IC50 [1]: 0.473 µM (active) | IC50 [2]: > 80 µM (inactive) | IC50 [3]: 0.23 µM (active)

Nc1c2c(nc3ccc(Br)cc13)N(C1CCCCC1)CC2
IC50 [4]: 4.61 µM (active) | IC50 [5]: 3.06 µM (active)

Cc1nn2c(NCCN(C)C)c3c(nc2c1-c1ccccc1)CCCC3
CC50 [6]: > 20 µM (active) | AC50 [7]: 4.57 µM (active) | CC50 [8]: 16.4 µM (active) | IC50 [9]: 5.84 µM (active) | AC50 [10]: 14.3 µM (active) | AC50 [11]: 12.7 µM (active)

CCCOCC(O)CC(CC)C(=O)NNC(=S)Nc1ccccc1 (centres undefined)
IC50 [12]: 69.5 µM (active) | EC50 [13]: 14.1 µM (active) | EC50 [14]: 15.1 µM (active) | EC50 [15]: 16.2 µM (active) | EC50 [16]: > 100 µM (not active)

O=C(Nc1nnc(S(=O)(=O)N2CCCCCC2)s1)c1ccc(Br)cc1
IC50 [17]: 18.1 µM (inactive) | IC50 [18]: > 20 µM (inactive) | EC50 [19]: 10.4 µM (active) | EC50 [20]: 1.56 µM (active) | IC50 [21]: > 20 µM (inactive) | IC50 [22]: 5.53 µM (active) | IC50 [23]: 14.2 µM (active) | IC50 [24]: > 20 µM (inactive) | IC50 [25]: > 20 µM (inactive)

N[C@H](C(=O)O)c1nnn[nH]1
AC50 [26]: inconclusive

COc1ccc(CN(C)c2ncnc3sccc23)c(OC)c1OC
AC50 [27]: 15.8 µM (active) | IC50 [28]: 13.8 µM (active) | AC50 [29]: 27.4 µM (active)
